Test results published in patent US20050261250A1, “Compositions and methods for inhibiting bone resorption” (Merck & Co., Inc.,, priority 2004, published 2005).

Legend:
[1] = Autoxidative lability of vitamin D3 as oil or amorphous solid (HPLC); assay type: physicochemical; settings: 20-40° C., within hours
From the text: It is also understood that vitamin D can undergo autoxidation through induction by a free radical initiator or spontaneously in solid or solution phase to form a variety of products, some of which have been identified. Representative characterization of vitamin D degradation (and, specifically, vitamin D3 in this instance) in embodiments of compositions of the present invention confirms the autoxidative lability of vitamin D3 in which vitamin D3 was converted to an oil or amorphous solid and exposed to temperatures from 20-40° C. […] At longer exposure times, these absorptions continued to decrease as further reaction occurred.

[2] = cited from earlier work

C=C1CC[C@H](O)C/C1=C/C=C1\CCC[C@]2(C)[C@@H]([C@H](C)CCCC(C)C)CC[C@@H]12 [Vitamin D3, cholecalciferol]
HPLC analysis of vitamin D3 after exposure [1]: extensive destruction

C=C1CC[C@H](O)C/C1=C/C=C1\CCC[C@]2(C)[C@@H]([C@H](C)/C=C/[C@H](C)C(C)C)CC[C@@H]12 [vitamin D2, ergocalciferol]
aqueous solubility [2]: water insoluble
